{"source": "patent US12416052B2", "about": "“Capturing, concentrating, and detecting microbes in a sample using magnetic ionic liquids and recombinase polymerase amplification” (priority 2019, dated 2025)", "key": {"[1]": {"test_system": "Salmonella enterica subsp. enterica ser. Typhimurium ATCC 14028", "type": "cell-based", "parameters": "key to Relative Affinity for MIL: +++++: higher losses during wash step are due to lower cellular affinity for the MIL; ++++: higher losses during wash step are due to lower cellular affinity for the MIL; +++: higher losses during wash step are due to lower cellular affinity for the MIL; ++: higher losses during wash step are due to lower cellular affinity for the MIL; +: higher losses during wash step are due to lower cellular affinity for the MIL", "experimental": "(§1) A universal schematic for MIL-based cell extraction is depicted in FIG. 7B. A 1 mL volume of diluted cell suspension was added to a flat-bottomed 4-mL screw cap glass vial. Fifteen microliters of either the Ni(II) or Dy(III) MIL was added and dispersed into microdroplets by vortex agitation for 30 s. The aqueous phase was decanted following dispersive extraction, and the MIL was subjected to a brief wash step using 1 mL of nuclease-free water (Integrated DNA Technologies, Coralville, IA, USA) to ensure adequate removal of loosely or incidentally bound cells. After washing, release of viable cells from the MIL extraction phase was carried out using a “back-extraction” step accomplished through addition of 1 mL of an ionically-rich nutritive medium comprised of 20 g L^−1 tryptone and 10 g L^−1 NaCl, followed by a 120 s vortex step. After back-extraction, aliquots of the cell-enriched back-extraction medium were enumerated using the track dilution method using 100×100 mm square, gridded TSA, BSA, CA or VRBGA plates.\n(§2) Following back-extraction, aliquots of the cell-enriched back-extraction medium were serially diluted in 0.1% peptone water and a 10 μL aliquot of each dilution was applied to a separate lane on square plates containing an appropriate agar medium. The plates were then tilted at an approximately 80° angle for 15 min to allow the droplets to travel toward the opposite end of the plate. The plates were incubated for 24 h at 37° C. (TSA, VRBGA), for 48 h at 37° C. (BSA) or for 24 h at 37° C. (CA). Colonies were counted and colony forming units (CFU) were determined. The enrichment factor (EF) for MIL-based extraction was calculated using Equation 1, where CMIL represents the concentration of bacteria in suspension following extraction using the MIL and CS is the initial concentration of bacteria in the sample.\nBecause culture-based methods depend on sample preparation steps that preserve bacterial viability, potential deleterious cytotoxic effects imparted by MIL extractants must be considered. To begin our further study of MIL-bacterial interactions, we selected S. typhimurium ATCC 14028 as a model gram-negative pathogen and the Ni(II) MIL as extractant."}, "[2]": {"test_system": "S. enterica subsp. houtenae", "assay": "MIL-based whole-cell extraction", "parameters": "species or system Salmonella enterica", "details": "1×10^6 CFU mL^−1 in TSB, 15 μL MIL", "experimental": "as §1, §2\n(§3) In order to explore the broader utility of our approach, evaluation of additional cell types is needed. We began this extended evaluation of the Ni(II) MIL with seven representative DNA subgroups of Salmonella and eight strains of E. coli O157:H7. Briefly, a 1 mL aliquot of TSB was inoculated with 1×10^6 CFU mL^−1 of bacteria, and spiked with 15 μL of the Ni(II) MIL. MIL-based extraction was performed and 10 μL aliquots of the back-extraction solution were enumerated using TSA and BSA plates (Salmonella) or TSA plates (E. coli O157:H7). […] We later determined that VRBGA was a suitable common medium for this purpose and used this in our statistical analysis. Average CFU counts were compared to standards that were not exposed to the Ni(II) MIL. Enrichment factors were calculated for Salmonella on both non-selective (TSA) and selective agars (BSA) and for E. coli O157:H7 on non-selective agar (TSA). […] Note: As BSA is a Salmonella-specific agar E. coli O157:H7 was not plated to BSA in this example."}, "[3]": {"test_system": "S. enterica subsp. indica", "assay": "MIL-based whole-cell extraction", "parameters": "species or system Salmonella enterica", "details": "1×10^6 CFU mL^−1 in TSB, 15 μL MIL", "experimental": "as §1, §2, §3"}, "[4]": {"test_system": "S. enterica subsp. salamae", "assay": "MIL-based whole-cell extraction", "parameters": "species or system Salmonella enterica", "details": "1×10^6 CFU mL^−1 in TSB, 15 μL MIL", "experimental": "as §1, §2, §3"}, "[5]": {"test_system": "Y. enterocolitica ATCC 2371", "assay": "MIL-based whole-cell extraction", "parameters": "species or system Yersinia enterocolitica", "details": "EF determined using Tryptic Soy Agar", "experimental": "(§4) A universal schematic for MIL-based cell extraction is depicted in FIG. 7B. A 1 mL volume of diluted cell suspension was added to a flat-bottomed 4-mL screw cap glass vial. Fifteen microliters of either the Ni(II) or Dy(III) MIL was added and dispersed into microdroplets by vortex agitation for 30 s. The aqueous phase was decanted following dispersive extraction, and the MIL was subjected to a brief wash step using 1 mL of nuclease-free water (Integrated DNA Technologies, Coralville, IA, USA) to ensure adequate removal of loosely or incidentally bound cells. […]\nas §2, with “The plates were then tilted at an approximately 80° angle for 15 min to allow the droplets to travel toward the opposite end of the plate. The plates were incubated for 24 h at 37° C. (TSA, VRBGA), for 48 h at 37° C. (BSA) or for 24 h at 37° C. (CA).” left out"}, "[6]": {"test_system": "Y. enterocolitica ATCC 9160", "assay": "MIL-based whole-cell extraction", "parameters": "species or system Yersinia enterocolitica", "details": "EF determined using Tryptic Soy Agar", "experimental": "as §4\nas §2, with “The plates were then tilted at an approximately 80° angle for 15 min to allow the droplets to travel toward the opposite end of the plate. The plates were incubated for 24 h at 37° C. (TSA, VRBGA), for 48 h at 37° C. (BSA) or for 24 h at 37° C. (CA).” left out"}, "E. coli O157:H7": {"test_system": "E. coli O157:H7", "type": "cell-based, Escherichia coli", "details": "no significant differences (p-value=0.4491)", "experimental": "(§5) The following statistical analysis was performed in SAS 9.4. Four master suspensions of bacteria were prepared for four Salmonella enterica serovars: subsp. typhimurium, subsp. arizonae, subsp. diarizonae and subsp. houtenae. Two master suspensions were made for the remaining three Salmonella serovars or species: S. enterica subsp. indica, subsp. salamae and S. bongori. For E. coli O157:H7, two master suspensions of bacteria were prepared for each of the eight strains studied. For all bacteria tested, two replicate extractions from the same master suspension were performed, using the 10-3 dilution. Following MIL-based capture, back-extraction solutions were plated to non-selective agar (TSA) and selective agar (BSA) for Salmonella and SMAC for E. coli. To identify whether significant differences existed for the capture of Salmonella and E. coli O157:H7, we applied a linear mixed model for the response variable (enrichment factor) with log transformation in order to reduce skewness. […]\n(§6) In order to explore the broader utility of our approach, evaluation of additional cell types is needed. […] We later determined that VRBGA was a suitable common medium for this purpose and used this in our statistical analysis. […] Enrichment factors were calculated for Salmonella on both non-selective (TSA) and selective agars (BSA) and for E. coli O157:H7 on non-selective agar (TSA). […]"}, "Salmonella serovars": {"test_system": "Salmonella serovars", "type": "cell-based", "experimental": "as §5, §6"}, "[7]": {"details": "Table 3, 1×10^5 CFU mL^−1 in TSB, 15 μL MIL"}, "[8]": {"details": "Table 4, 1×10^6 CFU mL^−1 in TSB, 15 μL MIL"}, "[9]": {"details": "average over exposure times 0-15 min (n=4)"}, "[10]": {"details": "exposure time 0 min, 1×10^5 CFU mL^−1 in TSB, 15 μL MIL"}}, "note": "Like-named read-outs stand apart in the source and are kept apart here."}
{"smiles": "CCCCCCCCCCCCCC[P+](CCCCCC)(CCCCCC)CCCCCC.O=C([CH-]C(=O)C(F)(F)F)C(F)(F)F.O=C([CH-]C(=O)C(F)(F)F)C(F)(F)F.O=C([CH-]C(=O)C(F)(F)F)C(F)(F)F.[Ni+2]", "note": "[Ni(II) MIL, [P66614^+][Ni(hfacac)3^−]]", "values": [{"measurement": "Relative Affinity for MIL", "setting": "[1]", "value": "++++"}, {"measurement": "enrichment factors", "setting": "[1]; Example 2, 2×T, 1×NaCl back-extraction medium", "value": "approximately 12"}, {"measurement": "Enrichment Factor (BSA)", "setting": "[1]; [7]", "value": 14}, {"measurement": "Enrichment Factor (TSA)", "setting": "[1]; [7]", "value": 10}, {"measurement": "Enrichment Factor (BSA)", "setting": "[1]; [8]", "value": 6}, {"measurement": "Enrichment Factor (TSA)", "setting": "[1]; [8]", "value": 8}, {"measurement": "average EF value (BSA)", "setting": "[1]; [9]", "value": "8.2±1.0"}, {"measurement": "average EF value (TSA)", "setting": "[1]; [9]", "value": "7.2±0.6"}, {"measurement": "Percent-Loss", "setting": "[1]; cells lost to wash solution", "value": "53 ± 3", "unit": "%"}, {"measurement": "Enrichment Factor (BSA)", "setting": "[1]; [10]", "value": 7}, {"measurement": "Enrichment Factor (TSA)", "setting": "[1]; [10]", "value": 8}, {"measurement": "Enrichment Factor (BSA)", "setting": "[1]; exposure time 5 min", "value": 8}, {"measurement": "Enrichment Factor (TSA)", "setting": "[1]; exposure time 5 min", "value": 7}, {"measurement": "Enrichment Factor (BSA)", "setting": "[1]; exposure time 10 min", "value": 8}, {"measurement": "Enrichment Factor (TSA)", "setting": "[1]; exposure time 10 min", "value": 6}, {"measurement": "Enrichment Factor (BSA)", "setting": "[1]; exposure time 15 min", "value": 9}, {"measurement": "Enrichment Factor (TSA)", "setting": "[1]; exposure time 15 min", "value": 8}, {"measurement": "Enrichment Factor (BSA)", "setting": "[2]", "value": 8}, {"measurement": "Enrichment Factor (TSA)", "setting": "[2]", "value": 8}, {"measurement": "Enrichment Factor (BSA)", "setting": "[3]", "value": 4}, {"measurement": "Enrichment Factor (TSA)", "setting": "[3]", "value": 3}, {"measurement": "Enrichment Factor (BSA)", "setting": "[4]", "value": 9}, {"measurement": "Enrichment Factor (TSA)", "setting": "[4]", "value": 12}, {"measurement": "Enrichment Factor", "setting": "[5]", "value": 5}, {"measurement": "Enrichment Factor", "setting": "[6]", "value": 5}, {"measurement": "MIL-conferred injury: recovery on TSA vs VRBGA", "setting": "E. coli O157:H7", "value": "no injury could be detected"}, {"measurement": "MIL-conferred injury: recovery on TSA or BSA", "setting": "Salmonella serovars; no statistically significant differences (p-value=0.7248)", "value": "no detectable injury"}, {"measurement": "recovery on VRBGA compared with TSA", "setting": "Salmonella serovars; p-value=0.0004", "value": "significantly lower"}]}
